According to ChEMBL document CHEMBL4311972, “Discovery of a benzothiophene-flavonol halting miltefosine and antimonial drug resistance in Leishmania parasites through the application of medicinal chemistry, screening and genomics” (Eur J Med Chem, 2019):

Experiments:
[1] = system: Leishmania infantum; assay: Antileishmanial activity against luciferase expressing intracellular amastigote stage of Leishmania infantum infected in human THP1 cells assessed as parasite growth inhibition measured after 48 to 72 hrs by steady-glo luciferase assay; assay type: functional, organism-based; conditions: Leishmania infantum, THP-1; read-out: EC50
[2] = system: Trypanosoma brucei; assay: Antitrypanosomal activity against Trypanosoma brucei bloodstream form assessed as parasite growth inhibition incubated for 72 hrs by resazurin dye based assay; assay type: functional, organism-based; conditions: Trypanosoma brucei, 72 h; read-out: EC50
[3] = Cytotoxicity against human THP1 cells by MTT assay; assay type: cell-based, THP-1
[4] = Selectivity index, ratio of CC50 for human THP1 cells to EC50 for luciferase expressing intracellular amastigote stage of Leishmania infantum infected in human THP1 cells; assay type: toxicity, cell-based; conditions: read-out: Ratio CC50/EC50
[5] = target: hERG (KCNH2) (Homo sapiens, UniProt Q12809); assay: Inhibition of human ERG at 10 uM incubated for 2 hrs by fluorescence polarization assay relative to control
Sequence of hERG (KCNH2) (Q12809 whole entry): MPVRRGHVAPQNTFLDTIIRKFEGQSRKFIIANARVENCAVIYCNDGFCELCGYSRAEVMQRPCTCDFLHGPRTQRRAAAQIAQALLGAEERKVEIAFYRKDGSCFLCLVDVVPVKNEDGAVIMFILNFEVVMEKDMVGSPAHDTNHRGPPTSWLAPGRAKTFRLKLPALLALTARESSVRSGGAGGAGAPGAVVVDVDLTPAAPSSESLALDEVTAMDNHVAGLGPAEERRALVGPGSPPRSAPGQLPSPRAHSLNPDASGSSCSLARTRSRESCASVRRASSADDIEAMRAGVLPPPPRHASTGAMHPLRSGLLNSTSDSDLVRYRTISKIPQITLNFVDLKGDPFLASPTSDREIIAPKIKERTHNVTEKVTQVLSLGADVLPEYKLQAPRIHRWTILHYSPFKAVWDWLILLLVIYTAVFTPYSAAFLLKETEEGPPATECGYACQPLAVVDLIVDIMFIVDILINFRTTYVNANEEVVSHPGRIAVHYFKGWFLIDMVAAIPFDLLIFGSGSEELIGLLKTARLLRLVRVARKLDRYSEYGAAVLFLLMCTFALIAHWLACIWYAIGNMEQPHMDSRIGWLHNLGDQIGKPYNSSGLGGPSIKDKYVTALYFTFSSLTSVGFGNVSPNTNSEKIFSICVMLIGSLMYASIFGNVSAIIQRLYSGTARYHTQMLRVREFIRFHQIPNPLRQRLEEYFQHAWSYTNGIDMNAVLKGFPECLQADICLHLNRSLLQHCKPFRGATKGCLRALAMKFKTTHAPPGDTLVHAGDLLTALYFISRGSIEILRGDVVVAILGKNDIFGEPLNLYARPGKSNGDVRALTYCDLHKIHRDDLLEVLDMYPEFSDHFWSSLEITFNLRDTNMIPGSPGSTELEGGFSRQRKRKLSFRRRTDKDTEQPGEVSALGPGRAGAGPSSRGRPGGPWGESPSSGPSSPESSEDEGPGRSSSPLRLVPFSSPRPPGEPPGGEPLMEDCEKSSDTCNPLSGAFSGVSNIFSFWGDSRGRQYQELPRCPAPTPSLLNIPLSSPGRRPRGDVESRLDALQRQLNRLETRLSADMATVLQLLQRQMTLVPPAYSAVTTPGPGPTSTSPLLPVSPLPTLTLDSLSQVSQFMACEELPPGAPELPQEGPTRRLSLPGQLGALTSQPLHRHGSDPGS

[6] = target: T1, CYP1A2 (Homo sapiens, UniProt P05177); assay: Inhibition of human microsomal CYP1A2 expressed in baculovirus infected insect cells at 10 uM using luciferin-1A2 as substrate preincubated with enzyme/substrate mixture for 30 mins followed by further incubation with NADPH for 30 mins by CYP450 luciferase Glo assay relative to control; assay type: ADME; conditions: probe luciferin-1A2
T1 sequence (P05177 whole entry): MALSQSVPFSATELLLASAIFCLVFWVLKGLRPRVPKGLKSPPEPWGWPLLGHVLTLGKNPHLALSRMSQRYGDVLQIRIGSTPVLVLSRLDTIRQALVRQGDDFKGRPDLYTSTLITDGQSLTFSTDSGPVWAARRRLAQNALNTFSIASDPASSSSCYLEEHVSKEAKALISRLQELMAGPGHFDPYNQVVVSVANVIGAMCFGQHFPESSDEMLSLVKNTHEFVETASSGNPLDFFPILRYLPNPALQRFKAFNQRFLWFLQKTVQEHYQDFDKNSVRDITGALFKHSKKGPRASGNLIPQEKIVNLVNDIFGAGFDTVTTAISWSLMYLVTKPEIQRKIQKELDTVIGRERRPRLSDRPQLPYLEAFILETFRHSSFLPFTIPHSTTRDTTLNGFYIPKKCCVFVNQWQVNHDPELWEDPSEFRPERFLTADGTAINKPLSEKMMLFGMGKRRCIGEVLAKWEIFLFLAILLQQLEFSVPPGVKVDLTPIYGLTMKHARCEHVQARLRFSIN

[7] = target: CYP2C9 (Homo sapiens, UniProt P11712); assay: Inhibition of human microsomal CYP2C9 expressed in baculovirus infected insect cells at 10 uM using luciferin-H as substrate preincubated with enzyme/substrate mixture for 30 mins followed by further incubation with NADPH for 30 mins by CYP450 luciferase Glo assay relative to control; assay type: ADME; conditions: probe luciferin-H
Sequence of CYP2C9 (P11712 whole entry): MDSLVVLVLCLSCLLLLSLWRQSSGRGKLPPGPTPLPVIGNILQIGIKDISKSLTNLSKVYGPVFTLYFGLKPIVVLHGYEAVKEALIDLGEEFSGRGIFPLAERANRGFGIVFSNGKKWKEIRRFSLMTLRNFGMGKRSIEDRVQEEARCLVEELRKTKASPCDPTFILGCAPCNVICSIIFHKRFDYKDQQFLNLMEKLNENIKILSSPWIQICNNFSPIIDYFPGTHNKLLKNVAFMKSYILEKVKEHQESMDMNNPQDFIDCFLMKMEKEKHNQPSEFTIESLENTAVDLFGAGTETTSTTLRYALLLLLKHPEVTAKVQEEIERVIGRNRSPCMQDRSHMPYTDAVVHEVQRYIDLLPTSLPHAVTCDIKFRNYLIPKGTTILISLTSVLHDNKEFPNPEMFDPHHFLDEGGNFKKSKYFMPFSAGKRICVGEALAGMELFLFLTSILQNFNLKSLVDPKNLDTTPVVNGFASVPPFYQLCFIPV

[8] = target: CYP2C19 (Homo sapiens, UniProt P33261); assay: Inhibition of human microsomal CYP2C19 expressed in baculovirus infected insect cells at 10 uM using luciferin-H EGE as substrate preincubated with enzyme/substrate mixture for 30 mins followed by further incubation with NADPH for 30 mins by CYP450 luciferase Glo assay relative to control; assay type: ADME; conditions: probe luciferin-H EGE
Sequence of CYP2C19 (P33261 whole entry): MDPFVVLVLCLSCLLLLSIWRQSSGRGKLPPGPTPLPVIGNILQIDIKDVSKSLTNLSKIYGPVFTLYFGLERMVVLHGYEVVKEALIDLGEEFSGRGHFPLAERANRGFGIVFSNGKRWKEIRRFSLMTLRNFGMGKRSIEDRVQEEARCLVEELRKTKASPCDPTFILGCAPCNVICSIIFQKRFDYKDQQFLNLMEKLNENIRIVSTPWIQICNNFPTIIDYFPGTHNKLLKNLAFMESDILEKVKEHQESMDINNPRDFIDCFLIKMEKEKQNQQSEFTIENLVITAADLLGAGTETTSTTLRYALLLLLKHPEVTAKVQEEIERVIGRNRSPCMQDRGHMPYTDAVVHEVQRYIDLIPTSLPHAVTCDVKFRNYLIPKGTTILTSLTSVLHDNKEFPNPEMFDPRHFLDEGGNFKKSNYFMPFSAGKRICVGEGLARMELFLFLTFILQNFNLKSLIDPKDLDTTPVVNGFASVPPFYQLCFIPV

[9] = target: CYP2D6 (Homo sapiens, UniProt P10635); assay: Inhibition of human microsomal CYP2D6 expressed in baculovirus infected insect cells at 10 uM using luciferin-ME as substrate preincubated with enzyme/substrate mixture for 30 mins followed by further incubation with NADPH for 30 mins by CYP450 luciferase Glo assay relative to control; assay type: ADME; conditions: probe luciferin-ME
Sequence of CYP2D6 (P10635 whole entry): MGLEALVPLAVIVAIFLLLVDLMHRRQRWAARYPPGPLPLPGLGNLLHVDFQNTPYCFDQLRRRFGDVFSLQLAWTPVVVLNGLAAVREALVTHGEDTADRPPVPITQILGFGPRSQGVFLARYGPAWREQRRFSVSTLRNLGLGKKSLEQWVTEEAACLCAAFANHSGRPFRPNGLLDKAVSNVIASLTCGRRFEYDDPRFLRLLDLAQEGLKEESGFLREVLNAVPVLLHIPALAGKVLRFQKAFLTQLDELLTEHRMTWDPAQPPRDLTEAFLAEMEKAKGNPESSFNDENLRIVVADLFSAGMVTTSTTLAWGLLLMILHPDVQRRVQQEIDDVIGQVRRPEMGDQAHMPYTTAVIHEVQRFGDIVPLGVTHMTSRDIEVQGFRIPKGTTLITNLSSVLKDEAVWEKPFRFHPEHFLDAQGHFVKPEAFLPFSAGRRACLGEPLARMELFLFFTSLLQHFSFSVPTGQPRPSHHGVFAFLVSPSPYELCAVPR

[10] = target: CYP3A4 (Homo sapiens, UniProt P08684); assay: Inhibition of human microsomal CYP3A4 expressed in baculovirus infected insect cells at 10 uM using luciferin-IPA as substrate preincubated with enzyme/substrate mixture for 30 mins followed by further incubation with NADPH for 30 mins by CYP450 luciferase Glo assay relative to control; assay type: ADME; conditions: probe luciferin-IPA
Sequence of CYP3A4 (P08684 whole entry): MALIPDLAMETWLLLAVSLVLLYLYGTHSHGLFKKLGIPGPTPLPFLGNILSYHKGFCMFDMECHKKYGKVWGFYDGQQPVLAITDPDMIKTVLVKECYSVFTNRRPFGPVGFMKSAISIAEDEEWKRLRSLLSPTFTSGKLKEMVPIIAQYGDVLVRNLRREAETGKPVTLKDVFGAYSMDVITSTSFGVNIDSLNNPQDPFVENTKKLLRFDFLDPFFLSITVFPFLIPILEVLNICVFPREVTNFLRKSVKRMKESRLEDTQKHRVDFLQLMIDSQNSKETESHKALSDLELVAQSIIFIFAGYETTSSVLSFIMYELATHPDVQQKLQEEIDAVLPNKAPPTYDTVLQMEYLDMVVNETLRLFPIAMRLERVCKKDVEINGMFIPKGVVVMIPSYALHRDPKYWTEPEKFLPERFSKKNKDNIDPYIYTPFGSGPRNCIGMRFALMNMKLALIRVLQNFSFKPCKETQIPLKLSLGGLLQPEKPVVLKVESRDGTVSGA

[11] = Cytotoxicity against human A549 cells assessed as cell growth at […] incubated for 48 hrs by Celltiter-Glo luminescence assay relative to control; assay type: cell-based; design: dose or concentration left out as unconfirmed; conditions: read-out: Activity
[12] = system: 786-0; assay: Mitochondrial toxicity in human 786-0 cells at 10 uM incubated with compound for 6 hrs followed by incubation with MitoTracker Red chloromethyl-X-rosamine dye for 45 mins by imaging analysis; assay type: cell-based; conditions: 786-0, 6 h
[13] = Selectivity index, ratio of CC50 for human THP1 cells to EC50 for Trypanosoma brucei bloodstream form; assay type: toxicity; conditions: read-out: Ratio CC50/EC50

Structure (SMILES)	EC50 [1]	EC50 [2]	CC50 [3]	selectivity ratio [4]	inhibition at 2 h, 10 µM [5]	inhibition at 0.5 h, 10 µM [6]	inhibition at 0.5 h, 10 µM [7]	inhibition at 0.5 h, 10 µM [8]	inhibition at 0.5 h, 10 µM [9]	inhibition at 0.5 h, 10 µM [10]	viability at 48 h [11]	Activity [12]	selectivity ratio [13]
O=c1c(O)c(-c2csc3ccccc23)oc2ccc(Br)cc12	2.7 µM	1.5 µM	25 to 50 µM	9	-60.1%	78%	25.3%	24.3%	27.5%	-6.12%	119%	-22.7%	
COc1ccc2c(=O)c(O)c(-c3sccc3C)oc2c1		4.9 µM	12.5 to 25 µM		-3.84%	108%	45.5%	35.2%	9.1%	79.4%	65%	-8.17%	3
COc1ccc2c(=O)c(O)c(-c3cc(C)cs3)oc2c1		3 µM	25 to 50 µM		5.93%	103%	59.6%	77.9%	33.6%	12.5%	80.9%	0.01%	8
O=c1c(O)c(-c2cccc(-c3ccc(O)c(O)c3)c2)oc2ccc(O)cc12		1.7 µM	25 to 50 µM		4.2%	51.9%	-22.6%	31.5%	34%	21.5%	32.5%	-1.03%	15
Cc1csc(-c2oc3ccc(O)cc3c(=O)c2O)c1		4.9 µM	10 to 25 µM		16.1%	96.1%	40.1%	35.2%	40.1%	17.6%	93.8%	4.24%	2
O=c1c(O)c(-c2csc3ccccc23)oc2ccc(F)cc12	6 µM	1.5 µM	25 to 50 µM	4	-29.6%	86.4%	25.4%	26%	16.8%	11.5%	99.1%	-23.6%	
COc1ccc2oc(-c3csc4ccccc34)c(OC(C)=O)c(=O)c2c1	2.1 µM	1.3 µM	12.5 to 25 µM	6	-30%	90.7%	-229%	69.6%	30.8%	42%	47.3%	-27.27%	
O=c1c(O)c(-c2csc3ccccc23)oc2ccc(Cl)cc12	2.7 µM	2.1 µM	12.5 to 25 µM	5	-14%	84.7%	28.6%	12%	16.2%	1.36%	126%	-21.98%	
Cc1ccc2oc(-c3ccc(C)s3)c(O)c(=O)c2c1		3.3 µM	25 to 50 µM		34.3%	96.5%	6.64%	19.1%	22.6%	10.4%	30.9%	-15.83%	7
